# Measured values reported in paper PMC5090035, “A Class 1 Histone Deacetylase with Potential as an Antifungal Target” (mBio, 2016).
# Assays:
# [1] = molecular target: T1, RpdA (TAP-tagged wild-type RpdA) (Aspergillus nidulans, UniProt G5EB64); assay: HDAC assay, release of [3H]acetate from prelabeled histones; type: biochemical; settings: read-out: % inhibition at 50 nM
# T1 construct: gene ANIA_04493; full-length, C12 motif present; TAP-tagged, expressed under xylPp in A. nidulans, IgG Sepharose, eluted by TEV cleavage (CBP part kept)
# T1 sequence (G5EB64 1-687): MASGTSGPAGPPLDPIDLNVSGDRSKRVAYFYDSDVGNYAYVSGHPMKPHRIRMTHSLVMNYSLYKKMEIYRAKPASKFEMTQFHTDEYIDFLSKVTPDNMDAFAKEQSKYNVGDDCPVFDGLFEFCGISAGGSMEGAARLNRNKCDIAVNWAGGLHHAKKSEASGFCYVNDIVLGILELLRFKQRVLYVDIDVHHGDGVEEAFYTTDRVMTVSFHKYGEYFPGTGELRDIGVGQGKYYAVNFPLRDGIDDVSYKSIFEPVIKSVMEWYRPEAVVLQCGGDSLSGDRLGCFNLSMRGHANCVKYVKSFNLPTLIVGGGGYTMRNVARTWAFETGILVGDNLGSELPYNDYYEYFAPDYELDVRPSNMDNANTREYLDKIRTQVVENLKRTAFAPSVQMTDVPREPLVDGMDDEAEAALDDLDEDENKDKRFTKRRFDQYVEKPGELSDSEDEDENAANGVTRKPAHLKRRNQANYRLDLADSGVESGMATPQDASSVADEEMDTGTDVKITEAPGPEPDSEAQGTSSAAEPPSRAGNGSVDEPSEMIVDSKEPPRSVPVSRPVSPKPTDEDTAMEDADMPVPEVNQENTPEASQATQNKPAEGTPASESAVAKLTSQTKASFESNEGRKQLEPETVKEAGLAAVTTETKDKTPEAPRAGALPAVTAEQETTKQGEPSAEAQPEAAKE
# [2] = molecular target: T1, RpdA (TAP-tagged wild-type RpdA); assay: as above; type: biochemical; settings: [3H]acetate-prelabeled chicken reticulocyte histones as substrate; 1 h, 25 C; inhibitor at 50 and 500 nM
Structure (SMILES),inhibition at 0.05 µM [1],% inhibition at 50 and 500 nM [2]
CC(/C=C/C(=O)NO)=C\[C@@H](C)C(=O)c1ccc(N(C)C)cc1 [trichostatin A],70%,–
O=C(CCCCCCC(=O)Nc1ccccc1)NO [vorinostat],–,SAHA showed only weak inhibition of RpdA
